ChEMBL document CHEMBL5316347, “Design, Synthesis, and Biological Evaluation of Bipyridazine Derivatives as Stimulator of Interferon Genes (STING) Receptor Agonists” (J Med Chem, 2023)
The source made the active and inactive calls. The calls are words filed in the database; no cut-off is given here.

Tests used:
[1] = target: T1, Stimulator of interferon genes protein (Homo sapiens, UniProt Q86WV6); experiment: Agonist activity at human STING in human THP1-Blue ISG cells incubated for 24 hrs in presence of PMA by luciferase reporter assay; assay type: cell-based
T1 sequence (Q86WV6 whole entry): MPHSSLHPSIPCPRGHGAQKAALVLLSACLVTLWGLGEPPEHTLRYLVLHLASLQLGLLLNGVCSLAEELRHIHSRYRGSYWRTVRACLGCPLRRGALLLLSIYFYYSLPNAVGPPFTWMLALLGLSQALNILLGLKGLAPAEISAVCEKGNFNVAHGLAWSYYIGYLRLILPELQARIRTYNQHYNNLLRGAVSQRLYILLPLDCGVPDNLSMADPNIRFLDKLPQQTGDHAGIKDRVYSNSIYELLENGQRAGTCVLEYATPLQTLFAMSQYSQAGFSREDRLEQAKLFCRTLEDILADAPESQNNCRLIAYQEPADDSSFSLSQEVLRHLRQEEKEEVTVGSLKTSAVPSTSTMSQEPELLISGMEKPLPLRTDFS

[2] = system: Stimulator of interferon genes protein (Homo sapiens), Q86WV6 [UNDEFINED MUTATION]; conditions: dose 50.0 µM
Chain of Stimulator of interferon genes protein (Homo sapiens), Q86WV6 [UNDEFINED MUTATION] (Q86WV6 whole entry, looked up, change not shown): as the sequence (Q86WV6 whole entry) above

[3] = Clearance in C57BL/6 mouse at 10 mg/kg, iv qd measured upto 24 hrs by LC-MS/MS analysis; assay type: ADME, organism-based; conditions: in vivo
THP-1 = experiment: Cytotoxicity against human THP-1 cells assessed as inhibition of cell growth upto 40 uM measured after 24 hrs in presence of PMA by CellTiter-Glo viability assay; assay type: toxicity, cell-based; conditions: thp-1, 24 h
[4] = target: T2, Stimulator of interferon genes protein (Mus musculus, UniProt Q3TBT3); experiment: Agonist activity at mouse STING in STING knockout mouse RAW-Lucia ISG cells incubated for 24 hrs in presence of PMA by luciferase reporter assay; assay type: cell-based
T2 sequence (Q3TBT3 whole entry): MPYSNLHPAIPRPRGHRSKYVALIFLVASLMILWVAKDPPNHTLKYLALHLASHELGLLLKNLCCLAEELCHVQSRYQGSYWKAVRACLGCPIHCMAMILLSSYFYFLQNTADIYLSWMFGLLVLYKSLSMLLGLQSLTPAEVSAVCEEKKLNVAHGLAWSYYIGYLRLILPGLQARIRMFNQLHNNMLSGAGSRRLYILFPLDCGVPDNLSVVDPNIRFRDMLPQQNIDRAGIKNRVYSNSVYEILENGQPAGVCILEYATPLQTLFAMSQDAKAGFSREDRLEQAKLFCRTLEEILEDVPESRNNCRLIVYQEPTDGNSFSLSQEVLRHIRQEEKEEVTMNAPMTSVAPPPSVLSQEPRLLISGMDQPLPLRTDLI

[5] = AUC(0 to infinity) in C57BL/6 mouse at 10 mg/kg, iv qd measured upto 24 hrs by LC-MS/MS analysis; assay type: ADME, organism-based; design: time < 24 hrs, dose 10 mg/kg, route iv; conditions: in vivo
[6] = MRT(0 to infinity) in C57BL/6 mouse at 10 mg/kg, iv qd measured upto 24 hrs by LC-MS/MS analysis; assay type: ADME, organism-based; conditions: in vivo
[7] = Volume of distribution at steady state in C57BL/6 mouse at 10 mg/kg, iv qd measured upto 24 hrs by LC-MS/MS analysis; assay type: ADME, organism-based; conditions: in vivo, read-out: Vdss
[8] = target: T2, Stimulator of interferon genes protein; experiment: Agonist activity at mouse 6His-tagged recombinant STING CTD (144 to 378 residues) expressed in Escherichia coli BL21 (DE3) incubated for 10 mins by FRET assay
[9] = AUC(0 to t) in C57BL/6 mouse at 10 mg/kg, iv qd measured upto 24 hrs by LC-MS/MS analysis; assay type: ADME, organism-based; design: dose 10 mg/kg, time < 24 hrs, route iv; conditions: in vivo
[10] = target: T2, Stimulator of interferon genes protein; experiment: Agonist activity at mouse STING in mouse RAW-Lucia ISG cells incubated for 24 hrs in presence of PMA by luciferase reporter assay; assay type: cell-based
[11] = Half life in C57BL/6 mouse at 10 mg/kg, iv qd measured upto 24 hrs by LC-MS/MS analysis; assay type: ADME, organism-based; conditions: in vivo
B16-F10 [12] = experiment: Antitumor activity against mouse B16-F10 cells implanted in C57BL/6 mouse assessed tumor growth inhibition at 30 mg/kg, ip qd measured for 14 days; assay type: functional, organism-based; conditions: time 14.0 day
[13] = target: T3, Stimulator of interferon genes protein (Mus musculus) (UniProt Q3TBT3); experiment: Binding affinity to mouse 6His-tagged recombinant STING CTD (144 to 378 residues) expressed in Escherichia coli BL21 (DE3) assessed as thermal stability at 50 uM by measuring change in melting temperature by SYPRO orange dye based analysis; conditions: filed as agonist
T3 sequence (whole entry): T2 sequence (Q3TBT3 whole entry)

B16-F10 [14] = experiment: Antitumor activity against mouse B16-F10 cells implanted in C57BL/6 mouse assessed tumor growth inhibition at 10 mg/kg, ip qd measured for 14 days; assay type: functional, organism-based; conditions: time 14.0 day
[15] = target: T1, Stimulator of interferon genes protein; experiment: Agonist activity at human STING in STING knockout human THP1-Blue ISG cells incubated for 24 hrs in presence of PMA by luciferase reporter assay; assay type: cell-based
[16] = Toxicity in C57BL/6 mouse implanted with mouse B16-F10 cells assessed as body weight loss at 10 mg/kg, […] measured for 14 days; assay type: organism-based; conditions: in vivo, 336 h, time 14 day

SMILES: O=C(Nc1cc(F)c(F)cc1C(=O)O)c1ccc(Nc2cn[nH]c2)nn1
- EC50 [1]: 22.3 µM
- ΔTm ([2]; filed as agonist): 1 °C

SMILES: N#Cc1ccn(-c2ccc(C(=O)Nc3cc(F)c(F)cc3C(=O)O)nn2)c1
- EC50 [1]: 10.5 µM
- ΔTm ([2]; filed as agonist): 3.5 °C

SMILES: O=C(Nc1cc(F)c(F)cc1C(=O)O)c1ccc(-c2cncnc2)nn1
- EC50 [1]: 32.3 µM
- ΔTm [2]: 0 °C

SMILES: COc1ccc(C(=O)O)c(NC(=O)c2ccc(-c3ccnnc3)nn2)c1
- EC50 [1]: 5.96 µM
- ΔTm ([2]; filed as agonist): 1.5 °C

SMILES: CCCn1c(NC(=O)c2cc(C)nn2CC)nc2cc(C(N)=O)cc(OC3COC3)c21
- clearance [3]: 43.8 mL/min/kg
- Activity (THP-1): Toxic
- EC50 [4]: > 200 µM
- AUC(0-inf) [5]: 3830 ng·h/mL
- MRT inf [6]: 0.894 h
- Vd [7]: 2.38 L/kg
- IC50 [8]: 4.35 µM
- AUC(0-t) at 24 h [9]: 3820 ng·h/mL
- EC50 [10]: 5.22 µM
- half-life [11]: 1.13 h

SMILES: O=C(Nc1cc(F)c(F)cc1C(=O)O)c1ccc(-n2ccnc2)nn1
- inhibition (B16-F10 [12]): Active
- clearance [3]: 123 mL/min/kg
- EC50 [4]: > 200 µM
- ΔTm [13]: 9 °C
- AUC(0-inf) [5]: 1370 ng·h/mL
- inhibition (B16-F10 [14]): inactive
- MRT inf [6]: 0.495 h
- Vd [7]: 3.62 L/kg
- IC50 [8]: 1.6 µM
- AUC(0-t) at 24 h [9]: 1360 ng·h/mL
- half-life [11]: 1.82 h

SMILES: O=C(Nc1cc(Cl)c(F)cc1C(=O)O)c1ccc(-c2ccnnc2)nn1
- Activity (THP-1): Non-Toxic
- EC50 [4]: > 200 µM
- IC50 [8]: 0.93 µM
- EC50 [10]: 35.3 µM

SMILES: O=C(Nc1cc(F)c(F)cc1C(=O)O)c1ccc(N2CCOCC2)nn1
- EC50 [1]: > 100 µM
- ΔTm [2]: 0 °C

SMILES: Cc1cncn1-c1ccc(C(=O)Nc2cc(F)c(F)cc2C(=O)O)nn1
- EC50 [1]: 22.8 µM
- ΔTm [2]: 0 °C

SMILES: O=C(Nc1cc(C(F)(F)F)ccc1C(=O)O)c1ccc(-c2ccnnc2)nn1
- EC50 [1]: > 100 µM
- ΔTm [2]: 0 °C

SMILES: O=C(Nc1ccc(C(F)(F)F)cc1C(=O)O)c1ccc(-c2ccnnc2)nn1
- EC50 [1]: 1940 µM
- ΔTm ([2]; filed as agonist): 3.5 °C

SMILES: COc1ccc(NC(=O)c2ccc(-c3ccnnc3)nn2)c(C(=O)O)c1
- EC50 [1]: > 100 µM
- ΔTm [2]: 0 °C

SMILES: O=C(Nc1cc(Br)ccc1C(=O)O)c1ccc(-c2ccnnc2)nn1
- Activity (THP-1): Non-Toxic
- EC50 [4]: > 200 µM
- EC50 [10]: > 200 µM

SMILES: O=C(Nc1cc(F)c(F)cc1C(=O)O)c1ccc(-c2ccnnc2)nn1
- EC50 [1]: 17.9 µM
- ΔTm ([2]; filed as agonist): 6 °C

SMILES: O=C(Nc1cc(F)c(F)cc1C(=O)O)c1ccc(-c2cnsc2)nn1
- EC50 [1]: 17.6 µM
- ΔTm ([2]; filed as agonist): 3.5 °C

SMILES: O=C(Nc1cc(F)c(F)cc1C(=O)O)c1ccc(-n2cccc2)nn1
- EC50 [1]: 33.6 µM
- ΔTm ([2]; filed as agonist): 0.5 °C

SMILES: COc1cc2cc(C(=O)CCC(=O)O)sc2cc1OC
- EC50 [1]: 3.51 µM
- EC50 [4]: > 200 µM
- EC50 [15]: > 100 µM
- EC50 [10]: 34.5 µM

SMILES: O=C(Nc1cc(F)c(F)cc1C(=O)O)c1ccc(-c2ccoc2)nn1
- EC50 [1]: 38 µM
- ΔTm [2]: 0 °C

SMILES: O=C(Nc1ccc(Br)cc1C(=O)O)c1ccc(-c2ccnnc2)nn1
- EC50 [1]: 4.5 µM
- ΔTm ([2]; filed as agonist): 3.5 °C

SMILES: O=C(Nc1cc(F)c(F)cc1C(=O)O)c1ccc(-c2cccnc2)nn1
- EC50 [1]: 32.7 µM
- ΔTm [2]: 0 °C

SMILES: COc1cc(NC(=O)c2ccc(-c3ccnnc3)nn2)c(C(=O)O)cc1OC
- EC50 [1]: 21.3 µM
- ΔTm ([2]; filed as agonist): 0.5 °C

SMILES: C#Cc1cc(NC(=O)c2ccc(-c3ccnnc3)nn2)c(C(=O)O)cc1F
- clearance [3]: 37.8 mL/min/kg
- Activity (THP-1): Non-Toxic
- EC50 [4]: > 200 µM
- AUC(0-inf) [5]: 4410 ng·h/mL
- Activity [16]: Non-Toxic
- MRT inf [6]: 1.06 h
- Vd [7]: 2.39 L/kg
- IC50 [8]: 0.96 µM
- AUC(0-t) at 24 h [9]: 4390 ng·h/mL
- EC50 [10]: 12.9 µM
- half-life [11]: 2.1 h

SMILES: O=C(Nc1cc(F)c(F)cc1C(=O)O)c1ccc(-n2cncn2)nn1
- EC50 [1]: 11.5 µM
- ΔTm ([2]; filed as agonist): 1.5 °C

SMILES: CC(=O)c1ccn(-c2ccc(C(=O)Nc3cc(F)c(F)cc3C(=O)O)nn2)c1
- EC50 [1]: 29.9 µM
- ΔTm [2]: 0 °C

SMILES: O=C(Nc1cc(F)c(F)cc1C(=O)O)c1ccc(N2CCCC2)nn1
- EC50 [1]: > 100 µM
- ΔTm ([2]; filed as agonist): -1 °C

SMILES: O=C(Nc1cc(Br)c(F)cc1C(=O)O)c1ccc(-c2ccnnc2)nn1
- Activity (THP-1): Non-Toxic
- EC50 [4]: > 200 µM
- IC50 [8]: 1.9 µM
- EC50 [10]: 42 µM

SMILES: O=C(Nc1ccccc1C(=O)O)c1ccc(-c2ccnnc2)nn1
- EC50 [1]: > 100 µM
- ΔTm ([2]; filed as agonist): 0.5 °C

SMILES: Cn1cc(-c2ccc(C(=O)Nc3cc(F)c(F)cc3C(=O)O)nn2)cn1
- EC50 [1]: 20.6 µM
- ΔTm ([2]; filed as agonist): 0 °C
